Assay results taken from patent publication US8557265B2, “Use of a synergistic composition as a therapeutic agent of disinfectant” (Bode Chemie GmbH, priority 2007, dated 2013).

What was measured:
Type in all cases: cell-based
Escherichia coli = experiment: Test for antimicrobial action, colony count after plating; conditions: cell count of 106 in 50 μl mixed 1:1; incubation time 2 minutes; plated, 37° C.
Protocol: (§1) Fresh cultures of the indicated microorganisms were adjusted to a cell count of […] in 50 μl and then mixed in a 1:1 ratio with 50 μl of water 70% ethanol or the invented agent (100 mM ascorbic acid, 10 mM FeCl3, and 0.5% SDS). After an incubation time of 2 minutes, the 100 μl batches with the bacteria were plated out on corresponding growth dishes. After an incubation of 1-3 days at 28° C. (Saccharomyces cerevisiae and Candida parapsilosis) or 37° C. (Escherichia coli and Bacillus subtilis), the number of grown colonies was determined. In the batches with sterile water, all microorganisms survived.

Candida parapsilosis = experiment: as above; conditions: cell count of 106 in 50 μl mixed 1:1; incubation time 2 minutes; plated, 28° C.
Protocol: as §1

Bacillus subtilis = experiment: as above; conditions: cell count of 106 in 50 μl mixed 1:1; incubation time 2 minutes; plated, 37° C.
Protocol: as §1

Saccharomyces cerevisiae = experiment: as above; conditions: cell count of 106 in 50 μl mixed 1:1; incubation time 2 minutes; plated, 28° C.
Protocol: as §1

[1] = test system: genomic DNA and extrachromosomal plasmid (Yep351) of recombinant Escherichia coli strain; experiment: Breakdown of genomic DNA and extrachromosomal plasmid DNA in microorganisms, gel electrophoresis (FIG. 1); conditions: E. coli suspension, lysozyme 5 minutes, then 5 minutes with 5 μl of solution
Protocol: A recombinant Escherichia coli strain with an extrachromosomal plasmid (Yep351) was cultivated overnight in LB amp medium. Every 5 μl of this E. coli suspension were treated with 5 μl of lysozyme solution (1 mg/ml) for 5 minutes and then incubated for another 5 minutes with 5 μl of the indicated solutions (1-5). After adding bromophenol blue, the samples were placed in the gel bags and the DNA molecules were separated by electrophoresis.

Row | Compound | number of grown colonies (Escherichia coli) | number of grown colonies (Candida parapsilosis) | number of grown colonies (Bacillus subtilis) | number of grown colonies (Saccharomyces cerevisiae) | effect on DNA molecules in gel electrophoresis [1]
1 | CCO [70% ethanol, ethanol] | 0 | 0 | 0 | 0 | precipitation of the cell lysate and the DNA
2 | CCCCCCCCCCCCOS(=O)(=O)[O-].[Na+] [sample 3, SDS] |  |  |  |  | lysis of the cells
